Measurements reported in the supplement of paper PMC11208160.

Tests used:
[1] = recombinant barcode read abundance after kanamycin selection (control-corrected) (log10(CPM+1)); higher = more efficient recombination; sequences stand for … in AGTGCAGAGAAAATCGGCCAGTTTTCTCTGCCTGCAGTCCGCATGCCGT…AGATTTATGCAGCGGACTGCCTTTCTCCCAAAGTGATAAACCGGACAGTATCATGGACCGGTTTTCCCGGTAATCCGTATTTGCAAGGTTGGTTTCACT; site = the 11-nt target
Procedure: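 Pooled E. coli target-specificity screen for the IS621 bridge recombinase. Each library plasmid pairs an 11-nt target (CT core) with a bridge RNA whose target-binding loop (9-nt LTG + 4-nt RTG) is reprogrammed; the rest of the 177-nt WT IS621 bridge RNA scaffold is fixed. The plasmid is co-electroporated with a WT donor plasmid; recombinase is induced with 0.1 mM IPTG and recombinants are selected on kanamycin. Recombinant barcodes are sequenced, converted to CPM, averaged over two biological replicates and corrected by the unselected control CPM. Molecule = full bridge RNA written as DNA: LTG = specificity nt 1-9, RTG = reverse complement of specificity nt 8-11, in the WT scaffold.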

[2] = recombinant UMI read abundance after kanamycin selection (control-corrected) (log10(CPM+1)); higher = more efficient recombination; extreme values may be limits of the assay; sequences stand for … in AGTGCAGAGAAAATCGGCCAGTTTTCTCTGCCTGCAGTCCGCATGCCGTGGGACCCCTTGGGTTCTAACCTGTTGCCTAGATTTATGCAGCGGACTGCCTTTCTCCCAAAGTGATAAACCGG…AGGTTGGTTTCACT; site = the 11-nt donor
Outline: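 For the IS621 bridge recombinase, a pooled Escherichia coli screen tested donor and donor-binding-loop pairs. Cells received the pair library together with a target plasmid encoding a fixed target and T7-inducible recombinase, then went onto IPTG (0.07 mM) plus kanamycin or unselected plates in duplicate. After PCR across the donor–target junction and sequencing, recombinant UMI counts were normalized to CPM, averaged, and scaled by control-derived factors. Each value is given as log10(CPM+1).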
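Wherever recombinant UMI read abundance after kanamycin selection (control-corrected) is given: IS621 bridge recombinase in Escherichia coli cells against a fixed T5 target plasmid.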

| Sequence | recombinant barcode read abundance (log10) [1] | recombinant UMI read abundance (log10) [2] |
| --- | --- | --- |
| AAAATACCTTGGGTTCTAACCTGTTGCGG (site AAAATACCTCC) | 1.68 |  |
| AAAATACCTTGGGTTCTAACCTGTTGCGG (site CAAAGACCTCC) | 0.12 |  |
| AAAATATCTTGGGTTCTAACCTGTTGCCT (site AAAATATCTAG) | 0.438 |  |
| AAAATATCTTGGGTTCTAACCTGTTGCCT (site TCGTACCCTTT) | 0.0268 |  |
| AAAATCTCTTGGGTTCTAACCTGTTGCCT (site AAAATCTCTAG) | 0.708 |  |
| AAAATCTCTTGGGTTCTAACCTGTTGCCT (site AAACTCGCTAG) | 0.113 |  |
| AAACTAGCTTGGGTTCTAACCTGTTGCGG (site AAACTAGCTCC) | 2.27 |  |
| AAACTAGCTTGGGTTCTAACCTGTTGCGG (site CGTGCGCCTAG) | 0.288 |  |
| AAACTCGCTTGGGTTCTAACCTGTTGCCT (site AAAATCTCTAG) | 0.322 |  |
| AAACTCGCTTGGGTTCTAACCTGTTGCCT (site AAACTCGCTAG) | 1.8 |  |
| AAATGGGCTTGGGTTCTAACCTGTTGCGG (site AAATGGGCTCC) | 2.5 |  |
| AAATGGGCTTGGGTTCTAACCTGTTGCGG (site AGATGAGCTCC) | 0.166 |  |
| TTGCTGACATGGACCGGTTTTCCCGGTAATCCGTATTTGCG (site TTGCTGACTCG) |  | 1.33 |
| TTGCTGACATGGACCGGTTTTCCCGGTAATCCGTATTTGTG (site TTGCTGACTCA) |  | 0.12 |
| TTGGAAACATGGACCGGTTTTCCCGGTAATCCGTATTTGCA (site ATGGAAACTTG) |  | 0 |
| TTGGAAACATGGACCGGTTTTCCCGGTAATCCGTATTTGCA (site CTGGAAACTTG) |  | 1.21 |
| TTGGAAACATGGACCGGTTTTCCCGGTAATCCGTATTTGCA (site GTGGAAACTTG) |  | 0.342 |
| TTGGAAACATGGACCGGTTTTCCCGGTAATCCGTATTTGCA (site TTGGAAACTTG) |  | 1.86 |
| TTGGAGCCATGGACCGGTTTTCCCGGTAATCCGTATTTGAC (site TTGGAGCCTGT) |  | 1.31 |
| TTGGCCACATGGACCGGTTTTCCCGGTAATCCGTATTTGGA (site TTGGCCACTTC) |  | 0.146 |
| TTGGCGTCATGGACCGGTTTTCCCGGTAATCCGTATTTGTC (site TTGGCGTCTGA) |  | 1.13 |
| TTGGTATCATGGACCGGTTTTCCCGGTAATCCGTATTTGAC (site TTGGTATCTGT) |  | 2.59 |
| TTGTACCCATGGACCGGTTTTCCCGGTAATCCGTATTTGGT (site TTGTACCCTAC) |  | 0.111 |

| Sequence | recombinant barcode read abundance (log10) [1] | recombinant UMI read abundance (log10) [2] |
| --- | --- | --- |
| TTGTATACATGGACCGGTTTTCCCGGTAATCCGTATTTGGG (site TTGTATACTCC) |  | 0.00305 |
| TTGTGATCATGGACCGGTTTTCCCGGTAATCCGTATTTGTG (site TTGTGATCTCA) |  | 1.25 |
| TTGTGGACATGGACCGGTTTTCCCGGTAATCCGTATTTGTA (site TTGTGGACTTA) |  | 1.6 |
| TTTAAAGCATGGACCGGTTTTCCCGGTAATCCGTATTTGAC (site TTTAAAGCTGT) |  | 0 |
| TTTAACCCATGGACCGGTTTTCCCGGTAATCCGTATTTGAA (site TTTAACCCTTT) |  | 0.00893 |
| TTTAACTCATGGACCGGTTTTCCCGGTAATCCGTATTTGAA (site TTTAACTCTTT) |  | 0.34 |
| TTTAATACATGGACCGGTTTTCCCGGTAATCCGTATTTGAA (site TTTAATACTTT) |  | 0.00702 |
| TTTACGTCATGGACCGGTTTTCCCGGTAATCCGTATTTGAT (site TTTACGTCTAT) |  | 0.00816 |
| TTTAGACCATGGACCGGTTTTCCCGGTAATCCGTATTTGTC (site TTTAGACCTGA) |  | 0 |
| TTTATCCCATGGACCGGTTTTCCCGGTAATCCGTATTTGAT (site TTTATCCCTAT) |  | 0.263 |
| TTTCAGGCATGGACCGGTTTTCCCGGTAATCCGTATTTGAG (site TTTCAGGCTCT) |  | 0.155 |
| TTTCTAGCATGGACCGGTTTTCCCGGTAATCCGTATTTGGT (site TTTCTAGCTAC) |  | 0.0163 |
| TTTCTCACATGGACCGGTTTTCCCGGTAATCCGTATTTGCC (site TTTCTCACTGG) |  | 0.843 |
| TTTCTGTCATGGACCGGTTTTCCCGGTAATCCGTATTTGTA (site TTTCTGTCTTA) |  | 0 |
| TTTGAAGCATGGACCGGTTTTCCCGGTAATCCGTATTTGCG (site TTTGAAGCTCG) |  | 1.11 |
| TTTGCAGCATGGACCGGTTTTCCCGGTAATCCGTATTTGCT (site TTTGCAGCTAG) |  | 0.00605 |
| TTTGCAGCATGGACCGGTTTTCCCGGTAATCCGTATTTGCT (site TTTGCCGCTAG) |  | 0.0123 |
| TTTGCAGCATGGACCGGTTTTCCCGGTAATCCGTATTTGCT (site TTTGCGGCTAG) |  | 0.00881 |
| TTTGCAGCATGGACCGGTTTTCCCGGTAATCCGTATTTGCT (site TTTGCTGCTAG) |  | 0.00602 |
| TTTGCGCCATGGACCGGTTTTCCCGGTAATCCGTATTTGCT (site TTTGCGACTAG) |  | 0.0112 |
| TTTGCGCCATGGACCGGTTTTCCCGGTAATCCGTATTTGCT (site TTTGCGCCTAG) |  | 0.00475 |
| TTTGCGCCATGGACCGGTTTTCCCGGTAATCCGTATTTGCT (site TTTGCGGCTAG) |  | 0 |
| TTTGCGCCATGGACCGGTTTTCCCGGTAATCCGTATTTGCT (site TTTGCGTCTAG) |  | 0.0103 |

| Sequence | recombinant barcode read abundance (log10) [1] | recombinant UMI read abundance (log10) [2] |
| --- | --- | --- |
| TTTGCGGCATGGACCGGTTTTCCCGGTAATCCGTATTTGCA (site TTTGCGGCTAG) |  | 0.0111 |
| TTTGCGGCATGGACCGGTTTTCCCGGTAATCCGTATTTGCA (site TTTGCGGCTCG) |  | 0 |
| TTTGCGGCATGGACCGGTTTTCCCGGTAATCCGTATTTGCA (site TTTGCGGCTGG) |  | 0 |
| TTTGCGGCATGGACCGGTTTTCCCGGTAATCCGTATTTGCA (site TTTGCGGCTTG) |  | 0.222 |
| TTTGCGTCATGGACCGGTTTTCCCGGTAATCCGTATTTGCT (site TTTGCGACTAG) |  | 0 |
| TTTGCGTCATGGACCGGTTTTCCCGGTAATCCGTATTTGCT (site TTTGCGCCTAG) |  | 0.0115 |
| TTTGCGTCATGGACCGGTTTTCCCGGTAATCCGTATTTGCT (site TTTGCGGCTAG) |  | 0.018 |
| TTTGCGTCATGGACCGGTTTTCCCGGTAATCCGTATTTGCT (site TTTGCGTCTAG) |  | 0.251 |
| TTTGCTGCATGGACCGGTTTTCCCGGTAATCCGTATTTGTG (site TTAGCTGCTCA) |  | 0.0128 |
| TTTGCTGCATGGACCGGTTTTCCCGGTAATCCGTATTTGTG (site TTCGCTGCTCA) |  | 0.00352 |
| TTTGCTGCATGGACCGGTTTTCCCGGTAATCCGTATTTGTG (site TTGGCTGCTCA) |  | 0.0177 |
| TTTGCTGCATGGACCGGTTTTCCCGGTAATCCGTATTTGTG (site TTTGCTGCTCA) |  | 0.0238 |
| TTTGGCCCATGGACCGGTTTTCCCGGTAATCCGTATTTGCC (site TTTGGCCCTGG) |  | 0 |
| TTTGTGACATGGACCGGTTTTCCCGGTAATCCGTATTTGAG (site TTTGTGACTCT) |  | 0.0187 |
| TTTGTGGCATGGACCGGTTTTCCCGGTAATCCGTATTTGCT (site TTTGAGGCTAG) |  | 0 |
| TTTGTGGCATGGACCGGTTTTCCCGGTAATCCGTATTTGCT (site TTTGCGGCTAG) |  | 0.00488 |
| TTTGTGGCATGGACCGGTTTTCCCGGTAATCCGTATTTGCT (site TTTGGGGCTAG) |  | 0.022 |
| TTTGTGGCATGGACCGGTTTTCCCGGTAATCCGTATTTGCT (site TTTGTGGCTAG) |  | 0.113 |
| TTTGTTCCATGGACCGGTTTTCCCGGTAATCCGTATTTGGT (site ATTGTTCCTAC) |  | 0.0334 |
| TTTGTTCCATGGACCGGTTTTCCCGGTAATCCGTATTTGGT (site CTTGTTCCTAC) |  | 0.00622 |
| TTTGTTCCATGGACCGGTTTTCCCGGTAATCCGTATTTGGT (site GTTGTTCCTAC) |  | 0.0225 |
| TTTGTTCCATGGACCGGTTTTCCCGGTAATCCGTATTTGGT (site TTTGTTCCTAC) |  | 0.0215 |
